Data taken from paper PMC10675777, “Experimental Evaluation of the Hypersensitivity Reactions of a New Glycopeptide Antibiotic Flavancin in Animal Models” (Pharmaceuticals, 2023).
Structures can show the parent of a compound that is named as a salt. Where two headings read alike, the source gives them in different places.

Legend:
[1] = rat, in vivo, iv, 6.25 mg/kg
Experimental: Experimental animals were divided into groups of six at each time point. Flavancin was administered intravenously into the tail vein at a single dose of 6.25 mg/kg (5 TD). Control rats were injected with glucose solution in the same volume. Blood was collected 5, 15, 30 min and 1 h after injection into heparinized plastic tubes. Blood samples were centrifuged for 20 min at 1500 rpm. The supernatant was poured into tubes and stored at −20 °C until chromatographic analysis. Quantitative determination of flavancin in blood samples was carried out by high-performance liquid chromatography method (HPLC) with fluorimetric detection.
The method is based on the chromatography of specially prepared samples using a high-performance liquid chromatograph with a fluorescence detector and a reversed-phase column.
Gradient separation was performed at 40 °C on a column Jupiter C18 (250 mm × 4.6 mm, particle size 5 microns; Security Guard Cartridge, Phenomenex, Torrance, CA, USA). […] Detection was carried out using a fluorescence detector (Waters 2475, Waters Associates, Framingham, MA, USA) (excitation—240 nm, emission—330 nm). […] The lower limit of the quantitative determination of flavancin was 0.8 µg/mL. […]
Eight hundred µL of supernatant was replaced in 1.5 mL Eppendorf plastic tubes. […] The supernatant was analyzed by HPLC. […]

[2] = test system: histamine; experiment: Histamine in blood plasma after intravenous administration (Histamine-ELISA); settings: for Histamine Level in plasma: female CBA mice, n = 10, single i.v., equitoxic doses (~MTD): vancomycin 300 mg/kg, flavancin 100 mg/kg, ELISA
Experimental: The amount of histamine in the blood plasma of mice was detected 0.5, 1.5 and 3 min after a single intravenous administration of drugs.
Female CBA mice weighing 18–20 g were divided into groups of 10 animals each. Flavancin was dissolved in 5% glucose and administrated via the tail vein to the mice at a dose equivalent to one TD (2.5 mg/kg) or MTD (100 mg/kg). […] Untreated animals were used as the control group.
The animals were euthanized after 0.5, 1 and 1.5 min in an experiment using equiterapeutic doses and 0.5, 1.5 and 3 min for an experiment with the use of equitoxic doses, and the blood samples were collected after the drug administration. Next, 500 µL of whole blood, which had been drawn into 10 µL of heparin (30–50 IU) was centrifuged for 20 min at 2000 rpm. To perform the histamine analyses, 20 µL of plasma was mixed with dilutions of saline at ratios of 1:10 and 1:20. The amount of histamine was determined using an automatic biochemical and enzyme immunoassay analyzer (ChemWell, Awareness Technology, Inc., Palm City, FL, USA). The histamine detection was performed using the Histamine-ELISA reagent kit (Tecan Group Company, Männedorf, Switzerland).

[3] = test system: guinea pigs; experiment: General anaphylaxis reaction (anaphylactic shock)
Experimental: In order to determine the anaphylactogenic properties of flavancin, we selected two technically simple and easily reproducible tests: general anaphylaxis reaction and active skin anaphylaxis.
Adult guinea pigs weighing 300–350 g were randomized into three groups (n = 10). […] These doses were determined based on the effectiveness in mice (ED100), with adjustments made using the coefficient of the animals’ body surface [28]. Saline was used as the control in the experiment. As for the reference agent, cattle serum was employed, with a dose of 0.1 mL for sensitizing doses and 0.5 mL for the resolving doses. The sensitizing doses were following a scheme: the first injection was given subcutaneously, while the subsequent two injections were administrated intramuscularly, with a 48 h interval between each injection. The resolving dose was administered intracardially 21 days after the last day of sensitization.

[4] = test system: concanavalin A; settings: for The Mass of the Hind Leg Foot, Con A, Me, Mean ± SD / The Mass of the Hind Leg Foot, Saline, Mc, Mean ± SD: female CBA mice, n = 10, weighed 1 h later; for The Mass of the Hind Leg Foot, Con A, Me, Mean ± SD: Con A 0.5% into pad 1 h post-injection; for The Mass of the Hind Leg Foot, Saline, Mc, Mean ± SD: saline into contralateral pad; for RI (reaction index to concanavalin A) / Relative Increase Me Over Mc: mice; for Relative Increase Me Over Mc: (Me − Mc)/Mc × 100%
Experimental: Its administration causes nonimmune activation of histamine release and inflammatory edema at the injection site.
The experiment was carried out in accordance with «Guidelines on the assessment of allergic properties of drugs» [30]. Healthy female CBA mice weighing 20–24 g were divided into five groups, in cages of 10. […] 10 mL/kg of 5% glucose solution was administered to the animals of control group. One hour post-injection, 0.5% Con A in isotonic sodium chloride solution (0.01 mL/10 g body mass) was injected into the pad of the hind legs and the same volume of isotonic solution of sodium chloride was injected into the contralateral extremity of mice in the experimental and control groups. One hour later, the mice were euthanized. The hind legs were amputated at the hock joint and weighed. Relative increase Me over Mc in each group was calculated using the formula (Me − Mc)/Mc × 100%, where Me is the mass of the foot injected with Con A and Mc is the mass of the foot injected with saline solution. The RI of the group of animals receiving the drug, exceeding 20%, is considered significant and indicates an inflammatory reaction to concanavalin A.

[5] = test system: guinea pigs; settings: Evans blue
Experimental: In the study of active skin anaphylaxis, the sensitizing doses of flavancin were administered following the same scheme as described previously. The resolving dose, which consisted of a 0.1% solution of the dosage form of the drug in a 5% glucose solution with a volume of 0.05 mL per guinea pig, was administered intradermally 21 days after the last day of sensitization into a previously […] area of the flank skin. After 30 min, both the experimental and control groups of animals were intracardially injected with 0.5 mL of 1% Evans blue solution. Thirty minutes later, the animals were euthanized using ether anesthesia. The skin where the drug was intradermally administrated was then separated, and the diameter of the blue spot was measured and recorded. The collected quantitative data were statistically analyzed using a significance level of p < 0.05.

[6] = test system: patients; settings: patients treated with vancomycin; cited from earlier work
Experimental: This reaction is typically associated with intravenous administration of doses exceeding 1000 mg and administrated at a rate of less than 60 min [5]. […] More recently, the mechanism behind some IgE-independent reactions, previously referred to as pseudo ...

[7] = parameters: method as in PMID 1693055; settings: cited from earlier work

## CN[C@H](CC(C)C)C(=O)N[C@H]1C(=O)N[C@@H](CC(N)=O)C(=O)N[C@H]2C(=O)N[C@H]3C(=O)N[C@H](C(=O)N[C@H](C(=O)NCCNCc4ccccc4F)c4cc(O)cc(O)c4-c4cc3ccc4O)[C@H](O[C@H]3C[C@](C)(N)[C@@H](O)[C@H](C)O3)c3ccc(cc3)Oc3cc2cc(c3O[C@@H]2O[C@H](CO)[C@@H](O)[C@H](O)[C@H]2O[C@H]2C[C@](C)(N)[C@@H](O)[C@H](C)O2)Oc2ccc(cc2Cl)[C@H]1O [flavancin, N-(2((2-fluorobenzyl)amino)ethyl)amide of eremomycin hydrochloride]
[1]
  level at 1 h: 5000 ng/mL
[2]; 0.5 min
  Histamine Level in plasma: 549.9 ± 92.6 µg/L
[2]; 1.5 min
  Histamine Level in plasma: 796.2 ± 56.3 µg/L
[2]; 3 min
  Histamine Level in plasma: 297.7 ± 54.9 µg/L
[2]; mice, equivalent (therapeutic) dose, after 30 s
  Histamine level in the blood compared to vancomycin: three times lower
[3]; n = 10, sensitized with saline solution 1.0 mL x3, resolving flavancin 3.0 mg/kg intracardially
  Effect (general anaphylaxis reaction, anaphylactic shock): no
[3]; n = 10, sensitizing 0.5 mg/kg (1TD) subcutaneous then twice intramuscularly, 48 h interval, resolving 3.0 mg/kg (6TD) intracardially 21 days after sensitization
  Effect (general anaphylaxis reaction, anaphylactic shock): does not induce anaphylactic shock and no
[3]; n = 10, sensitizing 1.5 mg/kg (3TD) subcutaneous then twice intramuscularly, 48 h interval, resolving 3.0 mg/kg (6TD) intracardially 21 days after sensitization
  Effect (general anaphylaxis reaction, anaphylactic shock): does not induce anaphylactic shock and no
[4]; drug i.v. at MTD
  The Mass of the Hind Leg Foot, Con A, Me, Mean ± SD: 151.5 ± 3.0 mg
  The Mass of the Hind Leg Foot, Saline, Mc, Mean ± SD: 139.3 ± 2.9 mg
  Relative Increase Me Over Mc: 8.8%
[4]; drug i.v. at TD
  The Mass of the Hind Leg Foot, Con A, Me, Mean ± SD: 154.3 ± 2.1 mg
  The Mass of the Hind Leg Foot, Saline, Mc, Mean ± SD: 142.1 ± 2.0 mg
  Relative Increase Me Over Mc: 8.5%
[4]; both doses studied (TD and MTD), below 20% means no pseudoallergic reaction
  RI (reaction index to concanavalin A): less than 20%
[4]; drug i.v. at MTD, RI exceeding 20% is significant
  RI (reaction index to concanavalin A): 7.3%
[4]; drug i.v. at TD, RI exceeding 20% is significant
  RI (reaction index to concanavalin A): 3.7%
[5]; sensitizing 0.5 mg/kg x3, resolving 0.05 mL per pig of 0.1% solution 21 days after sensitization
  Blue Spot Diameter: 2.3 ± 0.6 cm
[5]; sensitizing 1.5 mg/kg x3, resolving 0.05 mL per pig of 0.1% solution 21 days after sensitization
  Blue Spot Diameter: 2.4 ± 0.5 cm

## vancomycin [reference compound]
[6]
  Occurrence of Red Man Syndrome (non-IgE-mediated hypersensitivity): 4–47%
[7]; 60-min intravenous infusion at a therapeutic dose, before the decrease
  Vancomycin concentration in the blood after infusion: 51.1 ± 9.2
[7]; 1 h after a 60-min intravenous infusion at a therapeutic dose
  Vancomycin concentration in the blood 1 h after infusion: 24.9 ± 2.9
[4]; drug i.v. at MTD
  The Mass of the Hind Leg Foot, Con A, Me, Mean ± SD: 149.4 ± 3.0 mg
  The Mass of the Hind Leg Foot, Saline, Mc, Mean ± SD: 131.8 ± 3.6 mg
[4]; drug i.v. at TD
  The Mass of the Hind Leg Foot, Con A, Me, Mean ± SD: 158.1 ± 3.8 mg
  The Mass of the Hind Leg Foot, Saline, Mc, Mean ± SD: 140.4 ± 2.3 mg
